Experimental data published in patent US20210308120A1, “Use of Amitriptyline for Blocking Brain Hemichannels and Method for Potentiating its Effect in Vivo” (THERANEXUS, priority 2015, published 2021).

Experiments:
Cx43 hemichannels = target: T1, Cx43 hemichannels (Mus musculus, UniProt P23242); assay: Hemichannel activity by ethidium bromide uptake in LPS-treated mouse cortical astrocyte cultures; type: cell-based; conditions: LPS 1 μg/mL and amitriptyline 5, 10 and 20 μM, 24 hours
T1 construct: Astrocyte cultures were prepared from cortex of rats and mice as previously described; endogenous in cells; host or cells: secondary cultures of mouse cortical astrocytes, LPS-treated
T1 sequence (P23242 whole entry): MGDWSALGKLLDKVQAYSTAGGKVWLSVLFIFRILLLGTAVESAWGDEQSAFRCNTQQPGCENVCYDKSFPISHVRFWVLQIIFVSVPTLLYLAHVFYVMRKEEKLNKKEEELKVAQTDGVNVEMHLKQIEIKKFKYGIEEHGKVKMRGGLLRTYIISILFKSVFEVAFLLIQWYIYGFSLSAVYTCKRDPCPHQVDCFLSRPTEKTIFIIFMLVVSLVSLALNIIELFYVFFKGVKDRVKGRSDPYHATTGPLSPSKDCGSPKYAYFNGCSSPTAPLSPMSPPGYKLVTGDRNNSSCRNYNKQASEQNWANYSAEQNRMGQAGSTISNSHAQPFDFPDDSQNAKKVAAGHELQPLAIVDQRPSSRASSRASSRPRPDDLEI
Protocol: Astrocyte cultures were prepared from cortex of rats and mice as previously described (Meme et al., 2006). Cells were seeded on polyornithine coated 35 mm dishes (5×10^5 cells/dish) or into 100-mm diameter plastic dishes at the density of 3×10^6 cells/dish. After 8-10 days, when cells grown into 35 mm in diameter plastic culture dishes have reached confluence, 1 μM of cytosine-arabinoside was added to the culture medium. In addition, when cells grown into 100 mm plastic culture dishes reached confluence, they were harvested with trypsin-EDTA. Then, cells were re-plated (2×10^5 cells per well), as secondary cultures, on glass coverslips placed inside 24-round-well plate. Finally, they were grown to confluence and cytosine-arabinoside was added. Medium was changed twice a week for all cells until the experiments were carried out. Hemichannel activity was evaluated in secondary cultures of cortical astrocytes by Ethidium Bromide (EtBr) uptake as already published (Orellana et al, 2011). 24 h before experiment, cells were pretreated or not with 1 μg/ml LPS known to open Cx43 HeC. The day of experiment, cells were first preincubated in HEPES buffer solution. Then, cells were exposed to 5 μM EtBr for 10 min at room temperature. Cells were then washed with the same buffer before fixation with 4% paraformaldehyde in PBS. Fixed cells were examined at 40× with a confocal laser-scanning microscope. Stacks of 10 consecutive confocal images taken at 0.49 μm intervals were acquired. For each experimental condition, 6 images were captured and then analyzed with Image J program (NIH software). LPS was added to mouse cortical astrocytic cultures during 24 hours to open Cx43 hemichannels and amitriptyline was also added during the same time to evaluate its action on hemichannel activity, quantified by cell uptake of ethidium bromide.

[1] = tested on: neuropathic mice (cuff model, allodynia); assay: Mechanical allodynia, von Frey test in sciatic nerve cuff model; type: in vivo, mouse
Protocol: Paw withdrawal thresholds of mice treated with either amitriptyline 6 mg/kg alone (AMIT 6) or amitriptyline 12 mg/kg alone (AMIT 12) are also shown (D). FIG. 10 (E) represents area under curve analysis.
Area under curve analysis are shown (B).
Neuropathic pain was induced to adult male C57BL/6J mice (Charles River, L'Arbresle, France) by cuffing the main branch of the right sciatic nerve (For detailed description and video illustration: Yalcin et al. 2014, J Vis Exp 89:e51608). Surgeries were performed under ketamine (68 mg/kg)/xylazine (10 mg/kg) intraperitoneal (i.p.) anesthesia (Centravet, Tadden, France). The common branch of the right sciatic nerve was exposed and a cuff of PE-20 polyethylene tubing (Harvard Apparatus, Les Ulis, France) of standardized length (2 mm) was unilaterally inserted around it (Cuff group). The shaved skin was closed using suture.
Injections were done once a day during the 17 first days of treatment, in the afternoon. As a single dose per day was ineffective, treatment was then done twice a day, morning and afternoon, from the 8 last days of treatment.
Mechanical allodynia was tested using von Frey hairs and results were expressed in grams (For detailed description and video illustration: Yalcin et al. 2014, J Vis Exp 89:e51608). Tests were done during the morning, starting at least 2 hours after lights on. Mice were placed in clear Plexiglas boxes (7 cm×9 cm×7 cm) on an elevated mesh screen. Calibrated von Frey filaments (Bioseb, Vitrolles, France) were applied to the plantar surface of each hindpaw until they just bent, in a series of ascending forces up to the mechanical threshold. Filaments were tested five times per paw and the paw withdrawal threshold was defined as the lower of two consecutive filaments for which three or more withdrawals out of the five trials were observed.
Mice were subjected to sciatic nerve cuffing and then tested with the von Frey test to evaluate allodynia quantified as pressure threshold.
Mice were subjected to sciatic nerve cuffing and then tested with the von Frey test to evaluate allodynia quantified as pressure threshold. Neuropathic mice, characterized by a decrease of pressure threshold after surgery, were then treated during 25 days and tested by the von Frey test during this period.

[2] = Pharmacokinetics of amitriptyline/mefloquine in plasma and brain of mice (LC-MS); type: in vivo, mouse; conditions: amitriptyline 6, 12 mg/kg, mefloquine 0.1, 0.3, 1 mg/kg i.p., 18 days, 2 hours after injection
Protocol: Data are presented as mean±SEM.
Adult male C57BL/6J mice (Charles River, L'Arbresle, France) were used. Mice were kept in collective cages for habituation to the facility for one week before experimental testing with food and water ad libitum. Mice were maintained on a light/dark cycle of 12 hours with light onset at 8h00 and with a controlled temperature of 21° C.±1° C.
Injections were done twice.
On day 18th of treatment, mice received the morning injection and samplings were done 2 hours after the injection. Mice were anesthetized just before sampling (ketamine 68 mg/kg, xylazine 10 mg/kg) and blood was collected by intracardiac puncture (Vacuette tubes, with lithium/heparin gel). The mouse was then decapitated, and the brain extracted and fast frozen in dry ice.
Vacuette tubes with blood were centrifugated (3000 rpm, 20 min), plasma recovered and stored at −80° C. until shipping in dry ice.

## CN(C)CCC=C1c2ccccc2CCc2ccccc21 [amitriptyline, 3-(5,6-dihydrodibenzo[2,1-b:2′,1′-f][7]annulen-11-ylidene)-N,N-dimethylpropan-1-amine]
Cx43 hemichannels
  HC activity (ethidium bromide uptake) after LPS-induced opening: reversed this increase at the three tested doses
[1]; amitriptyline 6 mg/kg i.p. chronic, alone
  Paw withdrawal threshold (von Frey): no changes of paw withdrawal
[1]; amitriptyline 12 mg/kg i.p. chronic, in comparison with amitriptyline 6 mg/kg
  Paw withdrawal threshold (von Frey): significant increase of the paw withdrawal threshold from day 32 to day 34
[1]; relative to active dose of amitriptyline alone
  Effective equivalent dose of amitriptyline when administered in combination with mefloquine: about 0.5
[2]
  Concentrations in blood and brain tissue: dose-dependent
